Values quoted from earlier work as cited in Sander's compilation of Henry's law constants (doi:10.1080/00022470.1982.10465374).

Test: Henry solubility constant Hcp at 298.15 K (mol/(m3 Pa))
Details: reference: Shen (1982); cited value

Row | SMILES | Henry solubility constant Hcp
1 | ClC=CCCl [1,3-dichloropropene] | 0.0028
2 | Cc1ccccc1 [methylbenzene] | 0.0017
3 | O=[N+]([O-])c1ccccc1 [nitrobenzene] | 0.41
4 | ClC1=C(Cl)[C@]2(Cl)[C@@H]3[C@@H]4C[C@@H]([C@H]5O[C@@H]45)[C@@H]3[C@@]1(Cl)C2(Cl)Cl [dieldrin] | 0.17
5 | ClC(Cl)=C(Cl)Cl [tetrachloroethene] | 0.00034
6 | Clc1ccc(Cl)cc1 [1,4-dichlorobenzene] | 0.0036
7 | ClCCl [dichloromethane] | 0.0031
8 | ClC(Cl)(Cl)C(Cl)(Cl)Cl [hexachloroethane] | 0.001
9 | CC(Cl)CCl (centres undefined) [1,2-dichloropropane] | 0.0035
10 | ClC(Br)Br [dibromochloromethane] | 0.013
11 | Clc1cccc(Cl)c1 [1,3-dichlorobenzene] | 0.0038
12 | c1ccccc1 [benzene] | 0.0018
13 | ClC1=C(Cl)[C@]2(Cl)[C@H]3[C@H]([C@@H]4C=C[C@H]3C4)[C@@]1(Cl)C2(Cl)Cl [aldrin] | 0.02
14 | ClC(Cl)=C(Cl)C(Cl)=C(Cl)Cl [hexachlorobutadiene] | 0.00096
15 | ClC1=C(Cl)C(Cl)(Cl)C(Cl)=C1Cl [hexachlorocyclopentadiene] | 0.0006
16 | c1ccc2c(c1)Cc1ccccc1-2 [2,3-benzindene] | 0.084
17 | ClC1=C(Cl)C2(Cl)C3C4OC4C(Cl)C3C1(Cl)C2(Cl)Cl (centres undefined) [heptachlorepoxide] | 0.31
18 | ClC=C(Cl)Cl [trichloroethene] | 0.00084
19 | C=C(Cl)Cl [1,1-dichloroethene] | 0.00066
20 | BrC(Br)Br [tribromomethane] | 0.019
21 | C1=Cc2cccc3cccc1c23 [acenaphthylene] | 0.087
22 | CCc1ccccc1 [ethylbenzene] | 0.0015
23 | ClC(Cl)Br [bromodichloromethane] | 0.0047
24 | ClC1=C(Cl)[C@]2(Cl)C3C(Cl)C(Cl)CC3[C@@]1(Cl)C2(Cl)Cl (some centres undefined) [chlordane] | 0.21
25 | ClC1=C(Cl)C2(Cl)C3C(Cl)C=CC3C1(Cl)C2(Cl)Cl (centres undefined) [heptachlor] | 0.0067
26 | CC(Cl)(Cl)Cl [1,1,1-trichloroethane] | 0.002
27 | Clc1ccccc1 [chlorobenzene] | 0.0025
28 | ClC(Cl)(Cl)Cl [tetrachloromethane] | 0.00033
29 | c1cc2c3c(cccc3c1)CC2 [acenaphthene] | 0.041
